Source: US20100267827A1, “PHENYL-PRENYL-ETHER DERIVATIVES FOR THE TREATMENT OF COGNITIVE, NEURODEGENERATIVE OR NEURONAL DISEASES OR DISORDERS” (NOSCIRA, S.A., priority 2006, published 2010)

Tests used:
[1] = molecular target: T1, rhBACE-1 β-Secretase recombinant human (Homo sapiens, UniProt P56817); assay: BACE assay (FRET); assay type: biochemical; conditions: percentage of enzyme activity remaining
T1 construct: purchased R&D Systems 931-AS
Source text: The aim of this assay is to determine if a compound, either synthetic or of marine origin, is a BACE-1 inhibitor, to avoid the formation of Aβ. This assay is based on FRET technology (Fluorescence Resonance Energy Transfer). FRET is used to measure cleavage of a peptide substrate, among other uses. […] When a substrate peptide cleavage occurs, the energy balance is broken and all the donor fluorescence can be observed. The increase in fluorescence is linearly related to the rate of proteolysis (Gordon, G W et al., 1998). In this assay the reaction occurs between an enzyme, purified BACE-1, and a fluorogenic peptidic substrate who present the “Swedish mutation”. The peptide cleavage by BACE-1 produces fluorescence energy and enzymatic activity can be quantified.
The reagents which are used in this assay are the following:
rhBACE-1 β-Secretase recombinant human (R&D Systems. Ref. 931-AS).
Fluorogenic Peptide Substrate IV (R&D Systems. Ref. ES004).
Beta-SECRETASE INHIBITOR H-4848. (BACHEM. Ref. H-4848.0001).
The assay is carried out in a 96 wells microplate. The final concentration of substrate is 3.5 μM per well, and the enzyme concentration is 0.5 μg/ml. The final volume of the assay is 100 μl per well and all reagents are diluted in Reaction Buffer. The compounds are tested at a concentration of 10^−5 and 10^−6 M. The control in the assay is the commercial inhibitor R-Secretase inhibitor H-4848 from BACHEM, which is tested at 300 nM. All the samples and controls are studied by duplicate.
The plate is mixed gently and changes in the fluorescence are measured using a fluorimeter plate reader, with 320 nm excitation filter and 405 nm emission filter. The temperature should be preferably maintained between 25 and 30° C. Measurements are carried out every ten minutes during an hour. The first measure is subtracted from the last to calculate the fluorescence increase, evaluating the enzymatic activity. The 100% activity is calculated as the mean of the results of wells without sample or inhibitor.
In the cases where abnormal effects in fluorescence were detected, BACE inhibition activity was assayed using BACE-1 (beta-Secretase) FRET ASSAY KIT (Invitrogen, Ref. P2985). Fluorescence was measured with a fluorimeter plate reader, with 544 nm excitation filter and 580 nm emission filter.
(§1) The compounds of formula (I) of the present invention where submitted to the above indicated assays, in order to determine both their GSK-3 inhibition activity and BACE activity inhibition. The results are indicated in Table I, in percentage of the respective enzyme activity.

[2] = molecular target: recombinant human glycogen synthase kinase 3 beta (Homo sapiens, UniProt P49841); assay: GSK-3 beta inhibition assay; assay type: biochemical; conditions: 0.5 h, percentage of enzyme activity remaining; for remaining activity at 25 µM: 25 μM compound; for remaining activity at 50 µM: 50 μM compound
Chain of recombinant human glycogen synthase kinase 3 beta (P49841 whole entry): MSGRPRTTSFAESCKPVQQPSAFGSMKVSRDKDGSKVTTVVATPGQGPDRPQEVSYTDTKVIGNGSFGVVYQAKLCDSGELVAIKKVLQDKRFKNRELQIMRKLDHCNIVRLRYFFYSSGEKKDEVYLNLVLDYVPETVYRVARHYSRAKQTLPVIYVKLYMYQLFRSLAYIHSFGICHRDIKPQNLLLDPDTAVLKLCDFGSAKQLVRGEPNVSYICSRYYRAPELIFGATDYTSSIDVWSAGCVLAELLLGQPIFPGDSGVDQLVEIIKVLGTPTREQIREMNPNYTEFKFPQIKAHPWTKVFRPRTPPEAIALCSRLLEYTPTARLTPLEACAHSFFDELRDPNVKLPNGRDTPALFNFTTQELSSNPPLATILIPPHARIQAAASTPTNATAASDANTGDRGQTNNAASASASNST
Description: The GSK-3 beta activity of the compounds of formula (I) according to the present invention was determined by incubation of a mixture of recombinant human GSK-3 enzyme, a phosphate source and GSK-3 substrate in the presence and in the absence of the corresponding test compound, and by measuring the GSK-3 activity of this mixture. The compounds where tested at final concentrations of 25 and 50 μM.
Recombinant human glycogen synthase kinase 3 beta was assayed in MOPS 11 mM, pH 7.4, EDTA 0.2 mM, EGTA 1.25 mM, MgCl2 26.25 mM and sodium orthovanadate 0.25 mM in the presence of 62.5 μM of Phospho-Glycogen Synthase Peptide-2 (GS-2), 0.5 μCi gamma-^33P-ATP and unlabelled ATP at a final concentration of 12.5 μM. The final assay volume was 20 μl. After incubation for 30 minutes at 30° C., 15 μl aliquots were spotted onto P81 phosphocellulose papers. Filters were washed four times for at least 10 minutes each and counted with 1.5 ml of scintillation cocktail in a scintillation counter.
as §1

T1 sequence (P56817 46-457 limits assumed): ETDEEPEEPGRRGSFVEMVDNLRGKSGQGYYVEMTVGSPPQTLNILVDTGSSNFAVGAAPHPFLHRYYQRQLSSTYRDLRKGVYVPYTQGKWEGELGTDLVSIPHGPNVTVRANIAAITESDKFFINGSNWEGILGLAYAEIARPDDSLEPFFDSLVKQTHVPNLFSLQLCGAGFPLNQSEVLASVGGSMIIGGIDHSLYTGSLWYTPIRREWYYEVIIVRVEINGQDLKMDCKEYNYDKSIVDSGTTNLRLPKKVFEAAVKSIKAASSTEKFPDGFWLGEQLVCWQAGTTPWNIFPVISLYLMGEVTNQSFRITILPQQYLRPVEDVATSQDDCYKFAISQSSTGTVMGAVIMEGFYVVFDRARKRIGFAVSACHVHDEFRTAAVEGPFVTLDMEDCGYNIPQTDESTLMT

| Compound | % of BACE activity ([1]; 1 μM compound) | % of BACE activity ([1]; 10 μM compound) | remaining activity at 25 µM [2] | remaining activity at 50 µM [2] |
| --- | --- | --- | --- | --- |
| COc1ccc(C(=O)OCC=C(C)C)cc1OC/C=C(\C)CCC=C(C)C [Compound 13] | 49 ± 5% | 0% | 54.6% | 7.36% |
| COC(=O)c1ccc(NC(C)=O)c(OC/C=C(\C)CC/C=C(\C)CCC=C(C)C)c1 [Compound 20] | 2 ± 4.5% | 0% | 74.4% | 40% |
| COc1ccc(C(=O)OC/C=C(\C)CCC=C(C)C)cc1OC/C=C(\C)CCC=C(C)C [Compound 11, 3-(3,7-Dimethyl-octa-2,6-dienyloxy)-4-methoxy-benzoic acid 3,7-dimethyl-octa-2,6-dienyl ester] | 48 ± 2% | 8 ± 3% | 84.8% | 58.2% |
| COC(=O)c1ccc(NC(C)=O)c(OC/C=C(\C)CCC=C(C)C)c1 [Compound 19, 4-Acetylamino-3-(3,7-dimethyl-octa-2,6-dienyloxy)-benzoic acid methyl ester] | 3.5 ± 5% | 0% | – | 85.1% |
| CC(C)=CCC/C(C)=C/COc1cccc(C(=O)O)c1 [Compound 6] | 87.5 ± 17% | 36.5 ± 38% | 70.3% | 80% |
| COC(=O)c1cccc(OC/C=C(\C)CCC=C(C)C)c1 [Compound 5] | 13.3% | 0% | 94.4% | 80.7% |
| CC(=O)Nc1ccc(C(=O)O)cc1OC/C=C(\C)CC/C=C(\C)CCC=C(C)C [Compound 21, 4-Acetylamino-3-(3,7,11-trimethyl-dodeca-2,6,10-trienyloxy)-benzoic acid] | 68.5 ± 0.7% | 29 ± 10% | 90% | 57.5% |
| COCOC(=O)c1ccc(OC)c(OC/C=C(\C)CCC=C(C)C)c1 [Compound 23, 3-(3,7-Dimethyl-octa-2,6-dienyloxy)-4-methoxy-benzoic acid methoxymethyl ester] | 61 ± 133% | 0% | 53% | 18.6% |
| CC(C)=CCC/C(C)=C/CC/C(C)=C/COc1ccc(C(=O)O)cc1OC/C=C(\C)CC/C=C(\C)CCC=C(C)C [Compound 24, 3,4-Bis-(3,7,11-trimethyl-dodeca-2,6,10-trienyloxy)-benzoic acid] | 30 ± 7% | 26 ± 13% | 12.4% | 4.55% |
| COC(=O)c1ccc(OC)c(OC/C=C(\C)CCC=C(C)C)c1C/C=C(\C)CCC=C(C)C [Compound 10] | 86.5 ± 5% | 82 ± 10% | 56% | 19.5% |
| CCOC(=O)c1ccc(O)c(OC/C=C(\C)CCC=C(C)C)c1 [Compound 27] | 100% | 50 ± 16% | 48.3% | 7.61% |
| CC(C)=CCC/C(C)=C/CC/C(C)=C/COc1cc(C(=O)O)ccc1N [Compound 17, 4-Amino-3-(3,7,11-trimethyl-dodeca-2,6,10-trienyloxy)-benzoic acid] | 100% | 79 ± 13% | 90.4% | 65.5% |
| CC(C)=CCC/C(C)=C/COc1cc(C(=O)O)ccc1O [Compound 28] | 100% | 89 ± 6% | 90.8% | 95.7% |
| COC(=O)c1ccc(OC)c(OC/C=C(\C)CCC=C(C)C)c1 [Compound 2, 3-(3,7-Dimethyl-octa-2,6-dienyloxy)-4-methoxy-benzoic acid methyl ester] | 100% | 18.5 ± 12.1% | 88.1% | 68% |
| COC(=O)c1ccc(N)c(OC/C=C(\C)CCC=C(C)C)c1 [Compound 8, 4-Amino-3-(3,7-dimethyl-octa-2,6-dienyloxy)-benzoic acid methyl ester] | 100% | 81 ± 8% | 85.6% | 71% |
| COc1ccc(C(=O)NC/C=C(\C)CCC=C(C)C)cc1OC/C=C(\C)CCC=C(C)C [Compound 12, N-(3,7-Dimethyl-octa-2,6-dienyl)-3-(3,7-dimethyl-octa-2,6-dienyloxy)-4-methoxy-benzamide] | 99 ± 7% | 42 ± 18% | 47.5% | 27.9% |
| COC(=O)c1ccc(N)c(OC/C=C(\C)CC/C=C(\C)CCC=C(C)C)c1 [Compound 9, 4-Amino-3-(3,7,11-trimethyl-dodeca-2,6,10-trienyloxy)-benzoic acid methyl ester] | 100% | 80 ± 13% | 91.7% | 59.5% |
